Results on 2 molecules are retold here after patent US20250205181A1 (CZAP RESEARCH AND DEVELOPMENT, LLC, priority 2021, published 2025).

The target of assay [1] is CB2 receptor (Mus musculus, UniProt P47936). Particulars: literature value, Lin et al., J Med Chem 1998; cited from earlier work.
A short description of assay [2]: Self-reported erectogenic effect / blood flow when tumescent in subject (Examples 1 and 2). The assay is classed as in vivo, human. Particulars: in conjunction with the 25 mg dosing of the anandamide CD formulation. Here is the method: The subject had been taking various amounts of sildenafil for many years at 10-25 mg increments.
The subject of Example 1 determined that the combined use of these formulations permitted controlled dosing with bolus and/extended release regimens.

A word on the pKi: it is −log10 of the Ki, conventionally taken in molar units.

Each structure is given as a SMILES string. pKi: −log10 of the molar value. Where only a bound is given, the exact number is not on record here.

Chain of CB2 receptor (P47936 whole entry): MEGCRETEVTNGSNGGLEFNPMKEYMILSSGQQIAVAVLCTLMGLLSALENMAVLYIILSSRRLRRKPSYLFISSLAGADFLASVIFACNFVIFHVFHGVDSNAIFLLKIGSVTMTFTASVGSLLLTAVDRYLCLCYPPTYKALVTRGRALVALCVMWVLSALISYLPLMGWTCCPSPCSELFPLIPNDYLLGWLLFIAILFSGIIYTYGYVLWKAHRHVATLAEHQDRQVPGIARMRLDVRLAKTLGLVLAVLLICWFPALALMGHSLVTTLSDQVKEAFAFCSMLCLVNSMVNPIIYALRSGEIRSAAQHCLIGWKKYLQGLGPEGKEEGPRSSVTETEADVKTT

For the molecule `CCCCC/C=C\C/C=C\C/C=C\C/C=C\CCCC(=O)NCCO` [anandamide, (5Z,8Z,11Z,14Z)-N-(2-hydroxyethyl)icosa-5,8,11,14-tetraenamide], the pKi in assay [1] is below 6.00.
Consider `CCCc1nn(C)c2c(=O)[nH]c(-c3cc(S(=O)(=O)N4CCN(C)CC4)ccc3OCC)nc12` [sildenafil], for which, in assay [2], the “effect of 10 mg sildenafil in conjunction with anandamide CD versus 25 mg sildenafil before anandamide CD supplementation” value was “more noticeable results”.
